Experimental data taken from patent publication EP4644403A1, “HALOGEN-CONTAINING COMPOUNDS USED FOR CAPPING THE 5' END OF NUCLEIC ACID AND USE THEREOF” (Shenzhen Rhegen Biotechnology Co., Ltd., priority 2023, dated 2024).

Molecular target: T1, T7 RNA polymerase (Escherichia phage T7, UniProt P00573)
T1 construct: purchased
Assay: Capped mRNA synthesis by in vitro transcription with cap analog (product amount, Nanodrop One)
Format: biochemical
Details: per 1 mL reaction system; in vitro transcription at 37°C, 4 hours; purified mRNA quantified with Nanodrop One
From the text: • a) A plasmid was linearized and a DNA template was purified. • b) Capping analogs of the present invention and Comparative Example 1 Trilink CleanCap, cap analogs of Comparative Example 2 and Comparative Example 3 were used to synthesize mRNA by in vitro transcription, respectively. Comparative Example 1 was commercially purchased, and Comparative Example 2 and Comparative Example 3 were obtained according to the method disclosed in WO2022/036858. [drawing 172]
Table 1 In vitro transcription system
c) During the experiment, the above reagents were fully mixed and incubated at 37°C. After 4 hours, deoxyribonuclease (DNase) was added and incubated for 30 minutes to remove the DNA template. After digestion, LiCl solution was added, precooled and centrifuged at 1,6000 rpm for 15 minutes to remove the supernatant. 70% ethanol was added and centrifuged to remove the supernatant again, and then a certain amount of enzyme-free water was added for storage. […] Table 2 amount (mg) of final product obtained per 1 mL of mRNA synthesis reaction system

T1 sequence (P00573 whole entry): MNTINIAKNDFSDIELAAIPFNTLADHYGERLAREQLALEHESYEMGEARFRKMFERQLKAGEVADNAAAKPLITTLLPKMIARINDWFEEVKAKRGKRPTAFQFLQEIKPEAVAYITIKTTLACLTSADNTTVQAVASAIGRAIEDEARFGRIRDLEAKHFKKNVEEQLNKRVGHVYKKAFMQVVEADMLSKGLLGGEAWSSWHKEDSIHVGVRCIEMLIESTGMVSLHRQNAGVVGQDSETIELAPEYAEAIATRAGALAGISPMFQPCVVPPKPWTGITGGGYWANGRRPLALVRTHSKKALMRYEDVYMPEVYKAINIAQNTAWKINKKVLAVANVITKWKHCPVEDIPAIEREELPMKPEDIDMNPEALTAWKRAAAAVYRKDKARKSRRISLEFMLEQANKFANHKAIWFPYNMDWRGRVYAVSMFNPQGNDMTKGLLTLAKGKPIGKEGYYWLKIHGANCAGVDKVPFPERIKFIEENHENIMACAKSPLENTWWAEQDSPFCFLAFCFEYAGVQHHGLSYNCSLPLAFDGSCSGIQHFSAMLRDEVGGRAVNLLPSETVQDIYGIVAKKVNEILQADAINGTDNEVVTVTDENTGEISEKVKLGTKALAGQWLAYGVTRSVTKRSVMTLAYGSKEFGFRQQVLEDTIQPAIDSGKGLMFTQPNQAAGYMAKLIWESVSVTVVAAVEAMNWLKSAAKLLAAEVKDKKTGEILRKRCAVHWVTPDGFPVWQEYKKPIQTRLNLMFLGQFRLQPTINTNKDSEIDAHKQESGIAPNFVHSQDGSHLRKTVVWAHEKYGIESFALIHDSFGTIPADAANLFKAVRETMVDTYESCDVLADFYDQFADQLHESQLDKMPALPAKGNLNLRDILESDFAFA

| SMILES | Product amount: amount (mg) of final product obtained per 1 mL of mRNA synthesis reaction system [mg] |
| --- | --- |
| C[n+]1cn([C@@H]2O[C@H](COP(=O)(O)OP(=O)(O)OP(=O)(O)OC[C@H]3O[C@@H](n4ccc(=O)[nH]c4=O)[C@H](F)[C@@H]3OP(=O)(O)OC[C@H]3O[C@@H](n4cnc5c(=O)[nH]c(N)nc54)[C@H](F)[C@@H]3O)[C@@H](O)[C@H]2O)c2nc(N)[nH]c(=O)c21 [Compound 68] | 5.8 |
| C[n+]1cn([C@@H]2O[C@H](COP(=O)(O)OP(=O)(O)OP(=O)(O)OC[C@H]3O[C@@H](n4cnc5c(N)ncnc54)[C@H](O)[C@@H]3OP(=O)(O)OC[C@H]3O[C@@H](n4cnc5c(=O)[nH]c(N)nc54)[C@H](F)[C@@H]3O)[C@@H](O)[C@H]2O)c2nc(N)[nH]c(=O)c21 [Compound 8] | 4.7 |
